Test results reported in patent US12448383B2, “Compounds and methods for treatment of viral infections” (priority 2022, dated 2025).

Experiments:
[1] = CC50 MT4 cytotoxicity (Cell-Titer Glo); assay type: cell-based; settings: human
Method in brief: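 Uninfected MT-4 and HEp-2 cells cultured 4-5 days at 37° C with 3-fold serially diluted compound (15 nM to 100,000 nM). Viability read by Cell-Titer Glo luminescence; untreated and 2 μM puromycin wells set 100% and 0%. CC50 from non-linear regression as concentration reducing viability by 50%.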

[2] = system: Respiratory syncytial virus recombinant with luciferase (RSV-Luc5) in HEp-2 cells; experiment: microbe, parasite or virus in culture; assay type: cell-based; settings: human respiratory syncytial virus, HEp-2, 72 h, read-out: RSV Hep2 EC50
[3] = system: Caco-2 cells (clone C2BBe1); experiment: CACO-2 permeability; assay type: in vitro ADME; design: unit not given here; settings: for DM Caco2 A to B: apical to basolateral, donor pH 6.5, receiver pH 7.4; for DM Caco2 B to A: basolateral to apical
Method in brief: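 Caco-2 monolayers grown 21 days on collagen-coated transwells and checked for integrity by TEER. Donor buffer was HBSS/HEPES/glucose pH 6.5 with 200 μM BNPP; receiver was pH 7.4 with BSA. Compounds were dosed apically or basolaterally for A-to-B and B-to-A transport, with receiver sampling at 1 and 2 h, LC-MS/MS analysis and percent recovery.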

[4] = system: Respiratory syncytial virus recombinant with luciferase (RSV-Luc5) in Normal Human Bronchial Epithelial (NHBE) cells; experiment: microbe, parasite or virus in culture; assay type: cell-based; settings: 72 h, read-out: RSV NHBE EC50
[5] = GI S9 stability - no PMSF; assay type: in vitro ADME; settings: pH 7.4; human intestinal S9, PMSF-free; read-out: GIS9-HUMAN-NoPMSF T1/2
Method in brief: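 Compounds were incubated at 2 μM with PMSF-free intestinal S9 (1 mg/mL protein) in 100 mM PBS, pH 7.4, sampling at 6 time points over 120 min. Parent disappearance and formation of the nucleoside metabolite Reference Compound A were quantified by LC-MS (Q-Exactive) using analyte/internal standard peak area ratios.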

[6] = system: SARS Coronavirus 2 recombinant with NanoLuc (SARS-CoV2-NLuc) in A549-hACE2 cells; experiment: organism not typed; assay type: cell-based; settings: 48 h; read-out: SARS-CoV2 EC50
[7] = Plasma stability; assay type: in vitro ADME; design: unit not given here; settings: 37° C., 2 μM substrate
Method in brief: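 Reaction mixture was sampled at 0.05, 0.5, 1, 2, 3 and 4 hr into quench solution containing internal standard, then centrifuged and diluted with water. Remaining analyte was measured by LC-MS on a Q-Exactive using a formic acid/acetonitrile gradient, with 5 ppm mass tolerance.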

Row | SMILES | CC50 [1] | EC50 [2] | DM Caco2 A to B [3] | DM Caco2 B to A [3] | EC50 [4] | half-life at 2 µM [5] | EC50 [6] | STA Human Plasma 37 [7]
1 | N#C[C@@]1(c2ccc3c(N)ncnn23)O[C@H](COC(=O)OCC23CCC(CC2)C3)[C@@H](O)[C@H]1O [Compound 52, ((2R,3S,4R,5R)-5-(4-aminopyrrolo[2,1-f][1,2,4]triazin-7-yl)-5-cyano-3,4-dihydroxytetrahydrofuran-2-yl)methyl (bicyclo[2.2.1]heptan-1-ylmethyl) carbonate] | 38800 nM | 100 nM | 6.95 | 13.04 | 919 nM | 0.655 min | 574 nM | 85
2 | N#C[C@@]1(c2ccc3c(N)ncnn23)O[C@H](COC(=O)OCC2CCC2)[C@@H](O)[C@H]1O [Compound 53, ((2R,3S,4R,5R)-5-(4-aminopyrrolo[2,1-f][1,2,4]triazin-7-yl)-5-cyano-3,4-dihydroxytetrahydrofuran-2-yl)methyl (cyclobutylmethyl) carbonate] | > 50000 nM | 98 nM | 2.34 | 10.58 | 833 nM | 0.636 min | 662 nM | 13
3 | CC1(OC(=O)OC[C@H]2O[C@@](C#N)(c3ccc4c(N)ncnn34)[C@H](O)[C@@H]2O)CCCC1 [Compound 56, ((2R,3S,4R,5R)-5-(4-aminopyrrolo[2,1-f][1,2,4]triazin-7-yl)-5-cyano-3,4-dihydroxytetrahydrofuran-2-yl)methyl (1-methylcyclopentyl) carbonate] | > 50000 nM | 1260 nM | 0.35 | 1.83 | 1210 nM | 16.5 min | 2520 nM | 77.644
4 | CCC(C)(CC)OC(=O)OC[C@H]1O[C@@](C#N)(c2ccc3c(N)ncnn23)[C@H](O)[C@@H]1O [Compound 69, ((2R,3S,4R,5R)-5-(4-aminopyrrolo[2,1-f][1,2,4]triazin-7-yl)-5-cyano-3,4-dihydroaytetrahydrofuran-2-yl)methyl (3-methylpentan-3-yl) carbonate] | > 50000 nM | 1050 nM | 1 | 4.74 | 988 nM | 48.7 min | 2830 nM | 294.49
5 | CCC(C)(C)OC(=O)OC[C@H]1O[C@@](C#N)(c2ccc3c(N)ncnn23)[C@H](O)[C@@H]1O [Compound 70, ((2R,3S,4R,5R)-5-(4-aminopyrrolo[2,1-f][1,2,4]triazin-7-yl)-5-cyano-3,4-dihydroxytetrahydrofuran-2-yl)methyl tert-pentyl carbonate] | > 50000 nM | 1720 nM | 0.88 | 6.91 | 2180 nM | 73 min | 2810 nM | 1399.3
6 | CC1(C)C2CCC1(C)C(OC(=O)OC[C@H]1O[C@@](C#N)(c3ccc4c(N)ncnn34)[C@H](O)[C@@H]1O)C2 (stereo partly drawn) [Compound 71, ((2R,3S,4R,5R)-5-(4-aminopyrrolo[2,1-f][1,2,4]triazin-7-yl)-5-cyano-3,4-dihydroxytetrahydrofuran-2-yl)methyl (1,7,7-trimethylbicyclo[2.2.1]heptan-2-yl) carbonate] | 47800 nM | 3010 nM | 4.02 | 13.65 | 532 nM | 25.8 min | 7820 nM | 1584
7 | N#C[C@@]1(c2ccc3c(N)ncnn23)O[C@H](COC(=O)OCC23CC(C2)C3)[C@@H](O)[C@H]1O [Compound 72, ((2R,3S,4R,5R)-5-(4-aminopyrrolo[2,1-f][1,2,4]triazin-7-yl)-5-cyano-3,4-dihydroxytetrahydrofuran-2-yl)methyl (bicyclo[1.1.1]pentan-1-ylmethyl) carbonate] | > 50000 nM | 779 nM | 2.52 | 10.69 | 1820 nM | 0.623 min | 1130 nM | 31.1
8 | N#C[C@@]1(c2ccc3c(N)ncnn23)O[C@H](COC(=O)OC2CC(F)(F)C2)[C@@H](O)[C@H]1O [Compound 73, ((2R,3S,4R,5R)-5-(4-aminopyrrolo[2,1-f][1,2,4]triazin-7-yl)-5-cyano-3,4-dihydroxytetrahydrofuran-2-yl)methyl (3,3-difluorocyclobutyl) carbonate] | > 50000 nM | 206 nM | 0.48 | 4.69 | 1100 nM | 0.588 min | 1900 nM | 70
9 | N#C[C@@]1(c2ccc3c(N)ncnn23)O[C@H](COC(=O)OC2CCC(F)(F)CC2)[C@@H](O)[C@H]1O [Compound 84, ((2R,3S,4R,5R)-5-(4-aminopyrrolo[2,1-f][1,2,4]triazin-7-yl)-5-cyano-3,4-dihydroxytetrahydrofuran-2-yl)methyl (4,4-difluorocyclohexyl) carbonate] | > 50000 nM | 311 nM | 0.27 | 6.99 | 205 nM | 0.955 min | 1540 nM | 327.2
10 | C[C@@H](OC(=O)OC[C@H]1O[C@@](C#N)(c2ccc3c(N)ncnn23)[C@H](O)[C@@H]1O)c1ccccc1 [Compound 87, ((2R,3S,4R,5R)-5-(4-aminopyrrolo[2,1-f][1,2,4]triazin-7-yl)-5-cyano-3,4-dihydroxytetrahydrofuran-2-yl)methyl ((R)-1-phenylethyl) carbonate] | > 50000 nM | 345 nM | 1.79 | 10.98 | 559 nM | 1.25 min | 1050 nM | 28.7
11 | C[C@H](OC(=O)OC[C@H]1O[C@@](C#N)(c2ccc3c(N)ncnn23)[C@H](O)[C@@H]1O)c1ccccc1 [Compound 88, ((2R,3S,4R,5R)-5-(4-aminopyrrolo[2,1-f][1,2,4]triazin-7-yl)-5-cyano-3,4-dihydroxytetrahydrofuran-2-yl)methyl ((S)-1-phenylethyl) carbonate] | > 50000 nM | 382 nM | 2.72 | 12.82 | 70.2 nM | 4.91 min | 1630 nM | 1584
12 | CC[C@H](C)OC(=O)OC[C@H]1O[C@@](C#N)(c2ccc3c(N)ncnn23)[C@H](O)[C@@H]1O [Compound 90, ((2R,3S,4R,5R)-5-(4-aminopyrrolo[2,1-f][1,2,4]triazin-7-yl)-5-cyano-3,4-dihydroxytetrahydrofuran-2-yl)methyl ((S)-sec-butyl) carbonate] | > 50000 nM | 249 nM | 0.9 | 7.41 | 180 nM | 0.591 min | 1840 nM | 169.9
